Results published in patent US12102594B2, “Infusion bag of Midazolam for intravenous use” (Sun Pharmaceutical Industries Limited, priority 2019, dated 2024).

Assays:
[1] = cited from earlier work
[2] = Packaging material screening: Assay of Midazolam HCL Injection in autoclaved and unautoclaved infusion containers; assay type: physicochemical
Experimental: Manufacturing process: Bulk solution preparation: 80% of the batch size of water for injection (WFI) was collected at a temperature of 20° C. to 25° C. in stainless steel 316L manufacturing tank of suitable capacity. Nitrogen gas was purged to get dissolve oxygen content less than 1 mg/L (ppm), pressure of nitrogen gas and time of purging or flow rate of nitrogen gas were recorded. Sodium chloride was added and dissolved gradually followed by stirring for not less than 10 minutes to ensure complete solubilization and clarity of solution visually. While additional excipients were added as below, the purging was stopped. 1 w/w hydrochloric acid (35 mL/Kg) was added and stirred well for approximately 10 minutes. […] The pH was adjusted to 3.0±0.1 using sufficient quantity of 1 w/w hydrochloric acid and stirred for around 1 h after pH adjustment to ensure complete dissolution of drug, stabilization of pH and until the appearance of the solution was a clear colourless solution. The pH was adjusted at 3.4±0.2 using sufficient quantity of 1 w/w Sodium hydroxide solution, and the volume was made up with dissolved oxygen maintained WFI stored at 20° C. to 25° C. […]

[3] = Terminal sterilization in different packaging material: Midazolam potency by HPLC based assay; assay type: physicochemical
Experimental: Method: Midazolam formulation samples (i) autoclaved and (ii) unautoclaved, were stored in different packaging materials, i.e. glass bottle, IC-H-AE-1, IC-S, IC-S′ and IC-PHC. Initial potency of Midazolam in such samples was tested using an HPLC based assay method.

[4] = Adsorption behaviour of Midazolam in different bags at variable fill volume (HPLC assay); assay type: physicochemical; conditions: 1 mg/mL, fill volumes 10, 20, 30, 40 ml
Experimental: Method: Adsorption behaviour of Midazolam in different bags (IC-S′, IC-S and IC-PHC) was evaluated at four variable fill volumes, i.e. 10 ml, 20 ml, 30 ml and 40 ml. The assay values of autoclaved samples of Midazolam formulation were evaluated using an HPLC based assay method. […] At lowest fill volume, surface area to volume ratio was high resulting higher adsorption of API on contact layer of infusion bags. As fill volume increases surface area to volume ratio decreases leads to lower adsorption and higher assay values. This confirmed the physical adsorption of Midazolam in IC-S infusion bags. […] This also ruled out the possibility of Midazolam adsorption in IC-PHC infusion bags.

[5] = Potency loss at lower concentration 0.2 and 0.5 mg/mL in different infusion bags (HPLC assay); assay type: physicochemical
Experimental: Method: Loss of potency of Midazolam was assessed using an HPLC based assay method for (i) autoclaved and (ii) unautoclaved formulations (0.2 mg/ml and 0.5 mg/ml) in glass bottle, IC-S infusion bag, IC-S′ infusion bag and IC-PHC infusion bag.

Cc1ncc2n1-c1ccc(Cl)cc1C(c1ccccc1F)=NC2.Cl [Midazolam hydrochloride, 8-chloro-6-(2-fluorophenyl)-1-methyl-4H-imidazo[1,5-a][1,4] benzodiazepine hydrochloride]
period over which diluted preparation was stable ([1]; 0.5 mg/ml, diluted with 5% dextrose solution and 0.9% sodium chloride, polyolefin bags, dark, room temperature (Hagan et al.)): 30 days
period over which diluted solution remained stable ([1]; 1 mg/ml diluted with 5% dextrose, polyvinyl chloride and polyolefin bags, regardless of storage conditions (Karlage et al.)): about 27 days

Cc1ncc2n1-c1ccc(Cl)cc1C(c1ccccc1F)=NC2 [Midazolam]
loss in assay or content upon autoclaving and long term storage ([2]; cyclo-olefin polymer or co-polymer as innermost layer of the infusion container): substantially no loss in assay
loss of assay percentage immediately after autoclaving ([2]; infusion bags with inner layer of low density polyethylene, polypropylene, polyolefin copolymer or ethylene propylene copolymer): significant loss of assay percentage
Midazolam potency loss ([3]; IC-H-AE-1 infusion bags): Potency loss was also not observed
Midazolam potency, autoclaved vs un-autoclaved ([3]; IC-PHC infusion bags): no significant change
Midazolam potency after autoclaving ([3]; IC-S and IC-S′ infusion bags): found to decrease after autoclaving
impact of fill volume on potency ([4]; IC-PHC infusion bags): no impact of fill volume on potency
assay of autoclaved sample vs fill volume ([4]; IC-S infusion bags): increasing trend with increasing fill volume
potency loss ([5]; IC-PHC infusion bags, 0.2 and 0.5 mg/mL): no potency loss
potency loss ([5]; IC-PHC infusion containers, 0.2 mg/mL): no potency loss
potency loss ([5]; IC-PHC infusion containers, 0.5 mg/mL): no potency loss
potency loss ([5]; IC-S and IC-S′ infusion bags, 0.2 and 0.5 mg/mL): significant potency loss
period of stability ([1]; 1 mg/ml in 0.9% sodium chloride, polyvinyl chloride bags, fluorescent light, room temperature (McMullin et al.)): about 10 days
